Measurements published in patent US20260070945A1, “MACROCYCLIC IMMUNOMODULATORS” (Bristol-Myers Squibb Company, priority 2022, published 2026).
*1 amine or outer side, *2 acyl side, *3 side chain or, on linkers, in order; H or OH if unused. Where a SMILES comes first, the peptide text is derived from it. Bridges are numbered along the chain shown (N, C = ends). [ ]: non-standard residue; d: D form. The star is where a group is joined. ξ: configuration not given here. Phe(3-CF3) = N[C@@H](Cc1cccc(C(F)(F)F)c1)C(=O)O; Phe(4-COOH) = N[C@@H](Cc1ccc(C(=O)O)cc1)C(=O)O; d(γGlu) = O=C(O)[C@@H](CCC(=O)[*:2])N[*:1]; Bip = N[C@@H](Cc1ccc(-c2ccccc2)cc1)C(=O)O; NH(CH2)14COOH = O=C(O)CCCCCCCCCCCCCCN*; γGlu = O=C(O)[C@H](CCC(=O)[*:2])N[*:1]; NH(CH2)12COOH = O=C(O)CCCCCCCCCCCCN*; Val(3-OH) = CC(C)(O)[C@H](N)C(=O)O; 2Thi = N[C@@H](Cc1cccs1)C(=O)O; Cha = N[C@@H](CC1CCCCC1)C(=O)O; Ile(3ξ) = CCC(C)[C@H](N)C(=O)O; Carboxymethyl = O=C(O)C*; NMeA = CN[C@@H](C)C(=O)O; Dab = NCC[C@H](N)C(=O)O; AEEA = NCCOCCOCC(=O)O

target: T1, PD-1/PD-L1 interaction (PE-labeled human PD-L1-Ig binding to Jurkat cell line over-expressing human PD-1) (Homo sapiens, UniProt Q15116); assay: Jurkat-PD-1 Cell Binding High-Content Screening Assay (CBA); conditions: PE-labeled PD-L1-Ig 20 nM final, Jurkat-hPD-1 cells; read-out: Jurkat HPD1 PDL1 IC50
T1 construct: expressed in transfected cells; host or cells: Jurkat
Summary of the method: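 High-content imaging read-out of PE-PD-L1-Ig binding (20 nM final, 1 h) to Jurkat-hPD-1 cells, after 2 h compound exposure at 37 °C in DMEM with 10% FCS. Nuclei counterstained with Hoechst 33342 after paraformaldehyde fixation.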

T1 sequence (Q15116 25-288): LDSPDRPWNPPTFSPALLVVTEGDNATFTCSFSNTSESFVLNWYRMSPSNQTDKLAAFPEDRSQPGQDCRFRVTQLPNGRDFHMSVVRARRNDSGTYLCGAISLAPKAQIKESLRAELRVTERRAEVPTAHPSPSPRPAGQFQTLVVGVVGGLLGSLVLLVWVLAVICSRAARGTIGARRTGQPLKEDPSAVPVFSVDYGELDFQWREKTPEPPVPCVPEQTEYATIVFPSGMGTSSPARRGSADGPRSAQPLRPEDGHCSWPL

| IC50 | SMILES |
| --- | --- |
| 9 nM | CC(=O)NCCCC[C@@H]1NC(=O)[C@H](C(C)(C)O)NC(=O)[C@H](CC2CCCCC2)NC(=O)[C@H](CCN)NC(=O)[C@@H](CC(C)C)NC(=O)[C@H](C)N(C)C(=O)[C@H](CCC(N)=O)NC(=O)[C@H](Cc2ccc(-c3ccccc3)cc2)NC(=O)[C@H](Cc2ccc(OCC(=O)O)cc2)NC(=O)[C@H](Cc2cccc(C(F)(F)F)c2)NC(=O)[C@H](CC(=O)O)NC(=O)[C@H](Cc2ccc(OCC(=O)O)cc2)NC(=O)[C@H](CC(C)C)NC(=O)CSC[C@@H](C(=O)N[C@@H](CCN)C(=O)NCCCCCCCCCCCCC(=O)O)NC1=O [Example 2626] ({CH2CO}-LY(Carboxymethyl)D[Phe(3-CF3)]Y(Carboxymethyl)[Bip]Q[NMeA][dL][Dab][Cha][Val(3-OH)]K(Ac)C[Dab]-{NH(CH2)12COOH}; thioether N-14) |
| 164 nM | CC(C)C[C@H]1NC(=O)[C@H](C)N(C)C(=O)[C@H](CCC(N)=O)NC(=O)[C@H](Cc2ccc(-c3ccccc3)cc2)NC(=O)[C@H](Cc2ccc(OCC(=O)O)cc2)NC(=O)[C@H](Cc2cccc(C(F)(F)F)c2)NC(=O)[C@H](CC(=O)O)NC(=O)[C@H](Cc2ccc(OCC(=O)O)cc2)NC(=O)[C@H](Cc2ccc(OCC(=O)O)cc2)NC(=O)CSC[C@@H](C(=O)N[C@@H](CCN)C(=O)NCCOCCOCC(=O)NCCOCCOCC(=O)N[C@H](CCC(=O)NCCCCCCCCCCCCCCC(=O)O)C(=O)O)NC(=O)[C@H](Cc2cnc[nH]2)NC(=O)[C@H](C(C)(C)O)NC(=O)[C@H](CC2CCCCC2)NC(=O)[C@H](CCN)NC1=O [Example 2627] ({CH2CO}-Y(Carboxymethyl)Y(Carboxymethyl)D[Phe(3-CF3)]Y(Carboxymethyl)[Bip]Q[NMeA][dL][Dab][Cha][Val(3-OH)]HC[Dab][AEEA][AEEA][dE](NH(CH2)14COOH)-OH; thioether N-14) |
| 247 nM | CC(C)C[C@H]1NC(=O)[C@H](C)N(C)C(=O)[C@H](CCC(N)=O)NC(=O)[C@H](Cc2ccc(-c3ccccc3)cc2)NC(=O)[C@H](Cc2ccc(OCC(=O)O)cc2)NC(=O)[C@H](Cc2cccc(C(F)(F)F)c2)NC(=O)[C@H](CC(=O)O)NC(=O)[C@H](Cc2ccc(OCC(=O)O)cc2)NC(=O)[C@H](C)NC(=O)CSC[C@@H](C(=O)N[C@@H](CCN)C(=O)NCCOCCOCC(=O)NCCOCCOCC(=O)N[C@H](CCC(=O)NCCCCCCCCCCCCCCC(=O)O)C(=O)O)NC(=O)[C@H](Cc2cnc[nH]2)NC(=O)[C@H](C(C)(C)O)NC(=O)[C@H](CC2CCCCC2)NC(=O)[C@H](CCN)NC1=O [Example 2628] ({CH2CO}-AY(Carboxymethyl)D[Phe(3-CF3)]Y(Carboxymethyl)[Bip]Q[NMeA][dL][Dab][Cha][Val(3-OH)]HC[Dab][AEEA][AEEA][dE](NH(CH2)14COOH)-OH; thioether N-14) |
| 30.6 nM | CC(C)C[C@H]1NC(=O)[C@H](C)N(C)C(=O)[C@H](CCC(N)=O)NC(=O)[C@H](Cc2ccc(-c3ccccc3)cc2)NC(=O)[C@H](Cc2ccc(OCC(=O)O)cc2)NC(=O)[C@H](Cc2cccc(C(F)(F)F)c2)NC(=O)[C@H](CC(=O)O)NC(=O)[C@H](Cc2ccc(OCC(=O)O)cc2)NC(=O)[C@H](C)NC(=O)CSC[C@@H](C(=O)N[C@@H](CCN)C(=O)NCCCCCCCCCCCCC(=O)O)NC(=O)[C@H](CCC(=O)O)NC(=O)[C@H](C(C)(C)O)NC(=O)[C@H](CC2CCCCC2)NC(=O)[C@H](CCN)NC1=O [Example 2629] ({CH2CO}-AY(Carboxymethyl)D[Phe(3-CF3)]Y(Carboxymethyl)[Bip]Q[NMeA][dL][Dab][Cha][Val(3-OH)]EC[Dab]-{NH(CH2)12COOH}; thioether N-14) |
| 9.5 nM | CC(C)C[C@H]1NC(=O)[C@H](C)N(C)C(=O)[C@H](CCC(N)=O)NC(=O)[C@H](Cc2ccc(-c3ccccc3)cc2)NC(=O)[C@H](Cc2ccc(OCC(=O)O)cc2)NC(=O)[C@H](Cc2cccc(C(F)(F)F)c2)NC(=O)[C@H](CC(=O)O)NC(=O)[C@H](Cc2ccc(OCC(=O)O)cc2)NC(=O)[C@H](Cc2cnc[nH]2)NC(=O)CSC[C@@H](C(=O)N[C@@H](CCN)C(=O)NCCCCCCCCCCCCC(=O)O)NC(=O)[C@H](CCC(=O)O)NC(=O)[C@H](C(C)(C)O)NC(=O)[C@H](CC2CCCCC2)NC(=O)[C@H](CCN)NC1=O [Example 2630] ({CH2CO}-HY(Carboxymethyl)D[Phe(3-CF3)]Y(Carboxymethyl)[Bip]Q[NMeA][dL][Dab][Cha][Val(3-OH)]EC[Dab]-{NH(CH2)12COOH}; thioether N-14) |
| 15.5 nM | CCC(C)[C@@H]1NC(=O)[C@H](Cc2ccc(-c3ccccc3)cc2)NC(=O)[C@H](C(C)C)NC(=O)[C@H](Cc2c[nH]c3ccccc23)NC(=O)[C@H](CC(=O)O)NC(=O)[C@H](Cc2ccc(C(=O)O)cc2)NC(=O)[C@H](Cc2cnc[nH]2)NC(=O)CSC[C@@H](C(=O)N[C@@H](CCN)C(=O)NCCOCCOCC(=O)NCCCCCCCCCCCCC(=O)O)NC(=O)[C@H](CCC(=O)O)NC(=O)[C@H](C(C)(C)O)NC(=O)[C@H](CC2CCCCC2)NC(=O)[C@H](CCN)NC(=O)[C@@H](CC(C)C)NC(=O)[C@H](C)N(C)C1=O (stereo partly drawn) [Example 2631] ({CH2CO}-H[Phe(4-COOH)]DWV[Bip][Ile(3ξ)][NMeA][dL][Dab][Cha][Val(3-OH)]EC[Dab][AEEA]-{NH(CH2)12COOH}; thioether N-14) |
| 24.9 nM | CCC(C)[C@@H]1NC(=O)[C@H](Cc2ccc(-c3ccccc3)cc2)NC(=O)[C@H](C(C)C)NC(=O)[C@H](Cc2c[nH]c3ccccc23)NC(=O)[C@H](CC(=O)O)NC(=O)[C@H](Cc2ccc(C(=O)O)cc2)NC(=O)[C@H](Cc2cnc[nH]2)NC(=O)CSC[C@@H](C(=O)N[C@@H](CCN)C(=O)N[C@@H](CCC(=O)NCCCCCCCCCCCCC(=O)O)C(=O)O)NC(=O)[C@H](CCC(=O)O)NC(=O)[C@H](C(C)(C)O)NC(=O)[C@H](CC2CCCCC2)NC(=O)[C@H](CCN)NC(=O)[C@@H](CC(C)C)NC(=O)[C@H](C)N(C)C1=O (stereo partly drawn) [Example 2632] ({CH2CO}-H[Phe(4-COOH)]DWV[Bip][Ile(3ξ)][NMeA][dL][Dab][Cha][Val(3-OH)]EC[Dab]E(NH(CH2)12COOH)-OH; thioether N-14) |
| 207 nM | CCC(C)[C@@H]1NC(=O)[C@H](Cc2ccc(-c3ccccc3)cc2)NC(=O)[C@H](C(C)C)NC(=O)[C@H](Cc2c[nH]c3ccccc23)NC(=O)[C@H](CC(=O)O)NC(=O)[C@H](Cc2ccc(C(=O)O)cc2)NC(=O)[C@H](Cc2cnc[nH]2)NC(=O)CSC[C@@H](C(=O)N[C@@H](CCN)C(=O)NCCOCCOCC(=O)N[C@@H](CCC(=O)NCCCCCCCCCCCCCCC(=O)O)C(=O)O)NC(=O)[C@H](CCC(=O)O)NC(=O)[C@H](C(C)(C)O)NC(=O)[C@H](CC2CCCCC2)NC(=O)[C@H](CCN)NC(=O)[C@@H](CC(C)C)NC(=O)[C@H](C)N(C)C1=O (stereo partly drawn) [Example 2633] ({CH2CO}-H[Phe(4-COOH)]DWV[Bip][Ile(3ξ)][NMeA][dL][Dab][Cha][Val(3-OH)]EC[Dab][AEEA]E(NH(CH2)14COOH)-OH; thioether N-14) |
| 188 nM | CCC(C)[C@@H]1NC(=O)[C@H](Cc2ccc(-c3ccccc3)cc2)NC(=O)[C@H](C(C)C)NC(=O)[C@H](Cc2c[nH]c3ccccc23)NC(=O)[C@H](CC(=O)O)NC(=O)[C@H](Cc2ccc(C(=O)O)cc2)NC(=O)[C@H](Cc2cnc[nH]2)NC(=O)CSC[C@@H](C(=O)N[C@@H](CCN)C(=O)NCCOCCOCC(=O)N[C@@H](CCC(=O)N[C@H](CCC(=O)NCCCCCCCCCCCCCCC(=O)O)C(=O)O)C(=O)O)NC(=O)[C@H](CCC(=O)O)NC(=O)[C@H](C(C)(C)O)NC(=O)[C@H](CC2CCCCC2)NC(=O)[C@H](CCN)NC(=O)[C@@H](CC(C)C)NC(=O)[C@H](C)N(C)C1=O (stereo partly drawn) [Example 2634] ({CH2CO}-H[Phe(4-COOH)]DWV[Bip][Ile(3ξ)][NMeA][dL][Dab][Cha][Val(3-OH)]EC[Dab][AEEA][γGlu][d(γGlu)]-{NH(CH2)14COOH}; thioether N-14) |
| 105 nM | CCC(C)[C@@H]1NC(=O)[C@H](Cc2ccc(-c3ccccc3)cc2)NC(=O)[C@H](C(C)C)NC(=O)[C@H](Cc2c[nH]c3ccccc23)NC(=O)[C@H](CC(=O)O)NC(=O)[C@H](Cc2ccc(C(=O)O)cc2)NC(=O)[C@H](Cc2cnc[nH]2)NC(=O)CSC[C@@H](C(=O)N[C@@H](CCN)C(=O)NCCOCCOCC(=O)N[C@@H](CCC(=O)NCCOCCOCC(=O)NCCCCCCCCCCCCCCC(=O)O)C(=O)O)NC(=O)[C@H](CCC(=O)O)NC(=O)[C@H](C(C)(C)O)NC(=O)[C@H](CC2CCCCC2)NC(=O)[C@H](CCN)NC(=O)[C@@H](CC(C)C)NC(=O)[C@H](C)N(C)C1=O (stereo partly drawn) [Example 2635] ({CH2CO}-H[Phe(4-COOH)]DWV[Bip][Ile(3ξ)][NMeA][dL][Dab][Cha][Val(3-OH)]EC[Dab][AEEA][γGlu][AEEA]-{NH(CH2)14COOH}; thioether N-14) |
| 136 nM | CC(C)C[C@H]1NC(=O)[C@H](C)N(C)C(=O)[C@H](Cc2ccc(C(=O)O)cc2)NC(=O)[C@H](Cc2ccc(-c3ccccc3)cc2)NC(=O)[C@H](Cc2ccc(OCC(=O)O)cc2)NC(=O)[C@H](Cc2cccc(C(F)(F)F)c2)NC(=O)[C@H](CC(=O)O)NC(=O)[C@H](Cc2ccc(OCC(=O)O)cc2)NC(=O)[C@H](Cc2cccs2)NC(=O)CSC[C@@H](C(=O)N[C@@H](CCN)C(=O)NCCCCCCCCCCCCC(=O)O)NC(=O)[C@H](Cc2cnc[nH]2)NC(=O)[C@H](C(C)(C)O)NC(=O)[C@H](CC2CCCCC2)NC(=O)[C@H](CCN)NC1=O [Example 2636] ({CH2CO}-[2Thi]Y(Carboxymethyl)D[Phe(3-CF3)]Y(Carboxymethyl)[Bip][Phe(4-COOH)][NMeA][dL][Dab][Cha][Val(3-OH)]HC[Dab]-{NH(CH2)12COOH}; thioether N-14) |
